Consider 20 compounds from patent publication US20250084084A1, “Crystalline form of (2R)-2-(5-fluoro-2-methoxypyridin-4-yl)-1-[(2S)-7-methyl-6-(pyrimidin-2-yl)-3,4-dihydro-1H-spiro[1,8-naphthyridine-2,3-pyrrolidin]-1-yl]propan-1-one” (Pfizer Inc., priority 2020, published 2025).

The assay concerns the target α-melanocyte-stimulating hormone receptor (hMC4R) (Homo sapiens (Human), UniProt P32245). As to the kind of experiment: In vitro binding affinity assay using hMC4R (radioligand competition binding, [125I]-(Nle4, D-Phe7)-α-MSH). Conditions: geometric mean. The procedure: The binding affinity of test compounds at the α-melanocyte-stimulating hormone receptor (hMC4R) was assessed using a radioligand competition binding assay. Recombinant Chinese hamster ovaries (CHO) cells stably expressing hMC4R (PerkinElmer #ES-191-C) were used for competitive binding. hMC4R membranes were grown in Dulbecco's Modified Essential Medium and Ham's F-12 Medium (DMEM/F12), 10% heat inactivated fetal bovine serum (FBS), 0.4 mg/mL Geneticin and 2 mM L-glutamine. Cell membranes were bulked and frozen until the assay was performed.
Compounds were solubilized in 100% dimethyl sulfoxide (DMSO) to a concentration of 30 mM. A 10-point intermediate dilution series using half log dilutions was created in 100% DMSO with a top concentration of 0.03 mM. The serially diluted compounds were spotted as 1 μL/well, in 96-well Costar 3363 plates. The final compound range in the assay was 300 nM to 0.01 nM with a final DMSO concentration of 1%. Control wells, containing 1 μL of 2 mM ([…]) alpha-melanocyte stimulating hormone (α-MSH-Tocris #2584) was added to the non-specific binding wells and 1 μL 100% DMSO for the total binding control wells. […] The exact concentration of radioligand used for each experiment was determined by liquid scintillation counting and adjusted if necessary.
Frozen hMC4R cell membranes were thawed and Dounce homogenized. Homogenates were resuspended in assay buffer to a concentration of 2 μg per well. […] The plates were incubated for 2 hours at room temperature. Assay samples were then rapidly filtered through Unifilter-96 GF/B PEI coated filter plates using a filter plate harvester (PerkinElmer) and rinsed with ice-cold wash buffer [25 mM (4-(2-hydroxyethyl)-1-piperazineethanesulfonic acid (HEPES), 1 mM MgCl2, 2.5 mM CaCl2, and 500 mM NaCl]. Filter plates were dried overnight at room temperature. Plates were then bottom-sealed prior to the addition of 50 μL/well Ultima Gold XR scintillation fluid (PerkinElmer 6013111). Plates were then top-sealed, incubated for 60 minutes at room temperature and then the amount of radioactivity present was determined by liquid scintillation counting on a Microbeta Trilux (PerkinElmer #2450-0060).
The raw data (expressed as counts per minute) were analyzed using ActivityBase (IDBS Data Management Software). […] Equilibrium dissociation constant for inhibitor of ligand and receptor interaction (Ki) values were then calculated from the IC50 values using the Cheng-Prusoff equation: Ki=IC50/(1+([L]/Kd)), where [L] is the concentration of the radioligand used in the experiment and Kd is the affinity of the radioligand (determined in separate saturation experiments).
Background: In a radioligand displacement assay an active substance lowers the binding of a labelled ligand.

Where [1] appears, read: read-out: Ki (nM) geometric mean.

Read-outs that look alike come from different tables or passages of the source.

Sequence of α-melanocyte-stimulating hormone receptor (hMC4R) (P32245 whole entry): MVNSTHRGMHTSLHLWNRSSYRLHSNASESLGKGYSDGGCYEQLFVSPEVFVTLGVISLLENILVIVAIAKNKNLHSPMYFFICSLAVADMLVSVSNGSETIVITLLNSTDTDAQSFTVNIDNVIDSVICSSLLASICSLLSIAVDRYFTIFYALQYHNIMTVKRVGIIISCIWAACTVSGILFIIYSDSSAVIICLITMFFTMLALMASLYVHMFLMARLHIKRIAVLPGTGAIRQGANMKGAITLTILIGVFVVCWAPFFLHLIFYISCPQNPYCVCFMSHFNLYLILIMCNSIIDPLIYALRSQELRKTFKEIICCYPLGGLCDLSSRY

The Ki is a dissociation constant, usually derived from enzyme kinetics or from competition with a known ligand. `COc1cc([C@@H](C)C(=O)N2CC[C@@]3(CCc4cc(-c5ncccn5)c(C)nc4N3)C2)c(F)cn1` [Example 14, (2R)-2-(5-Fluoro-2-methoxypyridin-4-yl)-1-[(2S)-7-methyl-6-(pyrimidin-2-yl)-3,4-dihydro-1H-spiro[1,8-naphthyridine-2,3′-pyrrolidin]-1′-yl]propan-1-one]: the Ki under setting [1] worked out at 0.46 nM.
With `COc1cc([C@@H](C)C(=O)N2CC[C@@]3(CCc4cc(-c5ncccn5)c(C)nc4N3)C2)c(Cl)cn1` [Example 15, (2R)-2-(5-Chloro-2-methoxypyridin-4-yl)-1-[(2S)-7-methyl-6-(pyrimidin-2-yl)-3,4-dihydro-1H-spiro[1,8-naphthyridine-2,3′-pyrrolidin]-1′-yl]propan-1-one], the Ki under setting [1] was found to be 0.25 nM.
Consider `[2H]c1cc([2H])nc(-c2cc3c(nc2C)N[C@@]2(CC3)CCN(C(=O)[C@H](C)c3cc(OC)ncc3F)C2)n1` [Example 18, (2R)-2-(5-Fluoro-2-methoxypyridin-4-yl)-1-{(2S)-7-methyl-6-[(4,6-2H2)pyrimidin-2-yl]-3,4-dihydro-1H-spiro[1,8-naphthyridine-2,3′-pyrrolidin]-1′-yl}propan-1-one], for which, under setting [1], the Ki was found to be 0.18 nM.
Regarding `COc1cc([C@@H](C)C(=O)N2CC[C@@]3(CCc4cc(-c5ncc(C(F)F)cn5)c(C)nc4N3)C2)c(F)cn1` [Example 21, (2R)-1-{(2S)-6-[5-(difluoromethyl)pyrimidin-2-yl]-7-methyl-3,4-dihydro-1H-spiro[1,8-naphthyridine-2,3′-pyrrolidin]-1′-yl}-2-(5-fluoro-2-methoxypyridin-4-yl)propan-1-one], the Ki under setting [1] is 2.2 nM.
On the same count and under the same terms, the same measure for `COc1cc([C@@H](C)C(=O)N2CC[C@@]3(CCc4cc(-c5ncc(Br)cn5)c(C)nc4N3)C2)c(F)cn1` [Example 22, (2R)-1-[(2S)-6-(5-bromopyrimidin-2-yl)-7-methyl-3,4-dihydro-1H-spiro[1,8-naphthyridine-2,3′-pyrrolidin]-1′-yl]-2-(5-fluoro-2-methoxypyridin-4-yl)propan-1-one]: 2 nM; for `COc1cc([C@@H](C)C(=O)N2CC[C@@]3(CCc4cc(-c5cn(C(F)(F)F)c(C)n5)c(C)nc4N3)C2)c(F)cn1` [Example 27, (2R)-2-(5-fluoro-2-methoxypyridin-4-yl)-1-{(2S)-7-methyl-6-[2-methyl-1-(trifluoromethyl)-1H-imidazol-4-yl]-3,4-dihydro-1H-spiro[1,8-naphthyridine-2,3′-pyrrolidin]-1′-yl}propan-1-one]: 2 nM; for `COc1cc([C@H](C)C(=O)N2CC[C@@]3(CCc4cc(-c5ncccn5)c(C)nc4N3)C2)c(F)cn1` [Example 28, (2S)-2-(5-fluoro-2-methoxypyridin-4-yl)-1-[(2S)-7-methyl-6-(pyrimidin-2-yl)-3,4-dihydro-1H-spiro[1,8-naphthyridine-2,3′-pyrrolidin]-1′-yl]propan-1-one]: 160 nM.
`COc1cc([C@@H](C)C(=O)N2CC[C@]3(CCc4cc(-c5ncccn5)c(C)nc4N3)C2)c(F)cn1` [Example 29, (2R)-2-(5-fluoro-2-methoxypyridin-4-yl)-1-[(2R)-7-methyl-6-(pyrimidin-2-yl)-3,4-dihydro-1H-spiro[1,8-naphthyridine-2,3′-pyrrolidin]-1′-yl]propan-1-one]: the Ki under setting [1] was determined as 11 nM.
Consider `COc1cc([C@H](C)C(=O)N2CC[C@]3(CCc4cc(-c5ncccn5)c(C)nc4N3)C2)c(F)cn1` [Example 30, (2S)-2-(5-fluoro-2-methoxypyridin-4-yl)-1-[(2R)-7-methyl-6-(pyrimidin-2-yl)-3,4-dihydro-1H-spiro[1,8-naphthyridine-2,3′-pyrrolidin]-1′-yl]propan-1-one], for which, under setting [1], the Ki is more than 250 nM.
As to `Cc1nc2c(cc1-c1ncccn1)CC[C@@]1(CCN(C(=O)Cc3cc(F)c(F)c(F)c3)C1)N2` [Example 54, 1-[(2S)-7-methyl-6-(pyrimidin-2-yl)-3,4-dihydro-1H-spiro[1,8-naphthyridine-2,3′-pyrrolidin]-1′-yl]-2-(3,4,5-trifluorophenyl)ethan-1-one], the Ki under setting [1] was determined as 0.93 nM.
Take `COc1cnc(-c2cc3c(nc2C)N[C@@]2(CC3)CCN(C(=O)[C@H](C)c3cc(OC)ncc3F)C2)nc1` [Example 67, (2R)-2-(5-fluoro-2-methoxypyridin-4-yl)-1-[(2S)-6-(5-methoxypyrimidin-2-yl)-7-methyl-3,4-dihydro-1H-spiro[1,8-naphthyridine-2,3′-pyrrolidin]-1′-yl]propan-1-one]: under setting [1], the Ki is 2.5 nM.
Take `COc1cc([C@@H](C)C(=O)N2CC[C@@]3(CCc4cc(-c5ncc(C(F)(F)F)cc5F)c(C)nc4N3)C2)c(F)cn1` [Example 68, (2R)-2-(5-fluoro-2-methoxypyridin-4-yl)-1-{(2S)-6-[3-fluoro-5-(trifluoromethyl)pyridin-2-yl]-7-methyl-3,4-dihydro-1H-spiro[1,8-naphthyridine-2,3′-pyrrolidin]-1′-yl}propan-1-one]: the Ki under setting [1] came out at 35 nM.
`COc1cc([C@@H](C)C(=O)N2CC[C@@]3(CCc4cc(-c5nc(C(F)(F)F)ccc5F)c(C)nc4N3)C2)c(F)cn1` [Example 69, (2R)-2-(5-fluoro-2-methoxypyridin-4-yl)-1-{(2S)-6-[3-fluoro-6-(trifluoromethyl)pyridin-2-yl]-7-methyl-3,4-dihydro-1H-spiro[1,8-naphthyridine-2,3′-pyrrolidin]-1′-yl}propan-1-one]: the Ki under setting [1] turned out to be 5.1 nM.
Regarding `COc1cc([C@@H](C)C(=O)N2CC[C@@]3(CCc4cc(-c5cnc(C6CC6)cn5)c(C)nc4N3)C2)c(F)cn1` [Example 70, (2R)-1-[(2S)-6-(5-cyclopropylpyrazin-2-yl)-7-methyl-3,4-dihydro-1H-spiro[1,8-naphthyridine-2,3′-pyrrolidin]-1′-yl]-2-(5-fluoro-2-methoxypyridin-4-yl)propan-1-one], the Ki under setting [1] was 40 nM.
Turning to `COc1cc([C@@H](C)C(=O)N2CC[C@@]3(CCc4cc(-c5cc(C(F)(F)F)ncn5)c(C)nc4N3)C2)c(F)cn1` [Example 72, (2R)-2-(5-fluoro-2-methoxypyridin-4-yl)-1-{(2S)-7-methyl-6-[6-(trifluoromethyl)pyrimidin-4-yl]-3,4-dihydro-1H-spiro[1,8-naphthyridine-2,3′-pyrrolidin]-1′-yl}propan-1-one], the inhibition constant (Ki) under setting [1] was found to be 3.3 nM.
`[2H]C([2H])([2H])Oc1cc([C@@H](C)C(=O)N2CC[C@@]3(CCc4cc(-c5ncccn5)c(C)nc4N3)C2)c(F)cn1` [Example 74, (2R)-2-{5-fluoro-2-[(^2H3)methyloxy]pyridin-4-yl}-1-[(2S)-7-methyl-6-(pyrimidin-2-yl)-3,4-dihydro-1H-spiro[1,8-naphthyridine-2,3′-pyrrolidin]-1′-yl]propan-1-one]: the Ki under setting [1] came to 1.3 nM.
On to `COc1cc([C@@H](C)C(=O)N2CC[C@]3(CCc4cc(-c5nnn(C)n5)c(C)nc4N3)C2)c(F)cn1` [Example 116, (2R)-2-(5-fluoro-2-methoxypyridin-4-yl)-1-[(2R)-7-methyl-6-(2-methyl-2H-tetrazol-5-yl)-3,4-dihydro-1H-spiro[1,8-naphthyridine-2,3′-pyrrolidin]-1′-yl]propan-1-one], for which, under “read-out: Ki (nM) geometric”, the Ki worked out at 7.1 nM.
With `COc1cc([C@@H](C)C(=O)N2CC[C@@]3(CCc4cc(-c5cnn(C)n5)c(C)nc4N3)C2)c(F)cn1` [Example 118, (2R)-2-(5-fluoro-2-methoxypyridin-4-yl)-1-[(2S)-7-methyl-6-(2-methyl-2H-1,2,3-triazol-4-yl)-3,4-dihydro-1H-spiro[1,8-naphthyridine-2,3′-pyrrolidin]-1′-yl]propan-1-one], where the note is “read-out: Ki (nM) geometric”, the Ki amounted to 0.83 nM.
With `COc1cc([C@@H](C)C(=O)N2CC[C@@]3(CCc4cc(-c5cnn(C)n5)c(C)nc4N3)C2)c(Cl)cn1` [Example 119, (2R)-2-(5-chloro-2-methoxypyridin-4-yl)-1-[(2S)-7-methyl-6-(2-methyl-2H-1,2,3-triazol-4-yl)-3,4-dihydro-1H-spiro[1,8-naphthyridine-2,3′-pyrrolidin]-1′-yl]propan-1-one], the Ki (read-out: Ki (nM) geometric) is more than 17 nM.
`COc1cc([C@@H](C)C(=O)N2CC[C@@]3(CCc4cc(-c5nc(C(F)F)n(C)n5)c(C)nc4N3)C2)c(Cl)cn1` [Example 120, (2R)-2-(5-chloro-2-methoxypyridin-4-yl)-1-{(2S)-6-[5-(difluoromethyl)-1-methyl-1H-1,2,4-triazol-3-yl]-7-methyl-3,4-dihydro-1H-spiro[1,8-naphthyridine-2,3′-pyrrolidin]-1′-yl}propan-1-one]: the Ki (read-out: Ki (nM) geometric) turned out to be 0.4 nM.
